Data published in US9434763B2, “Derivatives of pyridinone as inhibitors for tissue transglutaminase” (ZEDIRA GMBH, priority 2012, dated 2016).

Tests used:
Type in all cases: cell-based
[1] = tested on: Huh 7 (human hepatome-cell line); assay: Cytotoxicity: proliferation, Cell Proliferation ELISA, BrdU, Huh 7; conditions: Huh7 cells; inhibitors up to highest measured concentration of 1 mM (so in the source); cycloheximide 2.5 μg/ml, camptothecin 0.2 μg/ml
Procedure: (§1) Huh 7 (human hepatome-cell line) and CaCo2 (human colon carcinoma-cell line) were seeded to 96 well plates in Dulbecco's Modified Eagle's Medium (DMEM)/10% fetal calf serum (FCS) and cultivated. The method is known to the skilled person.
(§2) […] The determination of the proliferation was carried out using the Cell Proliferation ELISA, BrdU (Roche 11 647 229 001): 24 hours after incubation of the cells with the inhibitor BrdU was added. The colorimetric development of the test was made after further 48 hours according to manufacturer's information. The extinction was measured at 450 nm. For determination of the metabolic activity using the EZ4U-Assay (Biomedica B1-5000) the tetrazolium substrate was added to the cells 48 hours after addition of the inhibitor. The capacity for reaction of the cells was measured every hour over a period of 4 hours at 450 nm against a reference filter of 630 nm. DMEM without inhibitor was added as reference in both experiments, as positive control cycloheximide (2.5 μg/ml) and camptothecin (0.2 μg/ml).

[2] = tested on: CaCo2 (human colon carcinoma-cell line); assay: Cytotoxicity: metabolic activity, EZ4U-Assay, CaCo2; conditions: CaCo2 cells; 48 hours after addition; inhibitors up to 1 mM (so in the source); cycloheximide 2.5 μg/ml, camptothecin 0.2 μg/ml
Procedure: as §1
After one hour the inhibitors A63 (ZED1227), A29 (ZED1098) and A61 (ZED1219) were added in the concentrations 0.1 μM to 1 μM. The determination of the proliferation was carried out using the Cell Proliferation ELISA, BrdU (Roche 11 647 229 001): 24 hours after incubation of the cells with the inhibitor BrdU was added. The colorimetric development of the test was made after further 48 hours according to manufacturer's information. The extinction was measured at 450 nm. For determination of the metabolic activity using the EZ4U-Assay (Biomedica B1-5000) the tetrazolium substrate was added to the cells 48 hours after addition of the inhibitor. The capacity for reaction of the cells was measured every hour over a period of 4 hours at 450 nm against a reference filter of 630 nm. DMEM without inhibitor was added as reference in both experiments, as positive control cycloheximide (2.5 μg/ml) and camptothecin (0.2 μg/ml).

[3] = tested on: Huh 7 (human hepatome-cell line); assay: Cytotoxicity: metabolic activity, EZ4U-Assay, Huh 7; conditions: Huh7 cells; 48 hours after addition; inhibitors up to 1 mM (so in the source); cycloheximide 2.5 μg/ml, camptothecin 0.2 μg/ml
Procedure: as §1, §2

[4] = tested on: CaCo2 (human colon carcinoma-cell line); assay: Cytotoxicity: proliferation, Cell Proliferation ELISA, BrdU, CaCo2; conditions: CaCo2 cells; inhibitors up to highest measured concentration of 1 mM (so in the source); cycloheximide 2.5 μg/ml, camptothecin 0.2 μg/ml
Procedure: as §1, §2

C[C@@H]1C[C@@H]([C@H](O)CC2CC(=O)NC(=O)C2)C(=O)[C@@H](C)C1 [cycloheximide, reference compound]
significant reduction: effect on proliferation (BrdU) [1] | effect on metabolic activity (EZ4U) [2] | effect on metabolic activity (EZ4U) [3] | effect on proliferation (BrdU) [4]

CC[C@@]1(O)C(=O)OCc2c1cc1n(c2=O)Cc2cc3ccccc3nc2-1 [camptothecin, reference compound]
significant reduction: effect on proliferation (BrdU) [1] | effect on metabolic activity (EZ4U) [2] | effect on metabolic activity (EZ4U) [3] | effect on proliferation (BrdU) [4]
